Data reported in publication PMC10470313, “Developing a peptide to disrupt cohesin head domain interactions” (iScience, 2023).
Where no end group is shown, it is not given here.

Experiments:
[1] = system: Smc3-GFP (cohesin holocomplex) in yeast protein extract; experiment: Microscale thermophoresis (MST) binding in yeast cell extract; conditions: 10 μM CIP3-TAT (Fig S3; method b75: 5 μM), extract of yAM-945 strain, MST binding mode, no binding constants
Description: We validated the in vitro binding of CIP3 to Smc3 by exploring the formation of the complex in a yeast cell extract in which Smc3 was fused to GFP. Protein extract from the yAM-945 strain containing Smc3-GFP was supplemented with 10 μM CIP3-TAT and analyzed by microscale thermophoresis (MST) in binding mode. In this assay, the migration of a fluorescent protein in a microscale temperature gradient is monitored. Changes in the physical-chemical properties of the protein, induced by interaction with another protein or a small molecule, will change the migration properties of the protein. While biochemical constants of the binding cannot be determined under these conditions, as the concentration of Smc3-GFP in the extract is undetermined.
Yeast strain yAM-945 cells containing Smc3-GFP were grown in SD-URA galactose to mid-log phase. Cells were collected by centrifugation and washed with water. The cell pellet was resuspended in 350 μl of MST Buffer (NanoTemper) supplemented with 0.05% Tween-20 (Sigma). Glass beads were added, and cells were lyzed by 4 cycles of 1 minute in a bullet blender (next advance). The protein extract was clarified by centrifugation at 1000 g for 5 minutes. […] The formation of the CIP3-TAT and cohesin complex was analyzed by Monolith NT.115 (NanoTemper) in the binding mode that detects the formation of complexes without calculating the binding constants.

yeast cells, G2/M = experiment: Chromosome condensation by two-photon microscopy; format: cell-based; conditions: nuclear-integrated density divided by circumference, at least 40 nuclei
Description: Chromosome condensation depends on cohesin. However, this cohesin function can be separated from sister chromatid cohesion activity.[45]^,[46] We tested this possibility by analyzing chromatin in G2/M cells via two-photon microscopy.[47]^,[48] Cells were grown and treated as before.
The method is described in.[47]^,[48] Briefly, cells were grown to mid-log phase. Two-photon microscopy of live cells was performed with the LSM780 (Zeiss) inverted confocal microscope, using the Chameleon Vision II (Coherent) multiphoton laser (3 W, pulse width 140 fs at peak, repetition rate 80 MHz, tuning range 680-1080 nm, excitation 768 nm/image collection 512 nm). Slides were visualized with X63 N/A 1.4 objective lenses. Cells in G2/M were selected based on their morphology. Images were analyzed using Image J processing software. The condensation level is represented by the division of the nuclear-integrated density by its circumference. The significance between conditions was determined by using Student's t-test.

[2] = system: yME-961 strain yeast cells; experiment: Sister chromatid cohesion GFP dot assay; format: cell-based; conditions: peptide 1 h at G1, release, G2/M arrest
Description: Figure 4 CIP3 inhibits sister chromatid cohesion and chromosome condensation (A) Flowchart outlining the sister chromatid cohesion assay. (B) yME-961 strain cells were grown and treated with peptides, as shown in A. Premature sister chromatid separation was determined by counting the number of cells showing two GFP dots. At least 300 cells were counted in 3 independent experiments. ∗∗p < 0.001. (C) Cells were grown to mid-log phase. The culture was divided into two flasks, one being treated with CIP3-TAT. Condensation was determined in cells at the G2/M phase by 2-photon microscopy. ∗∗p < 0.001. (D) yKS-008 strain (Smc3-V5) cells were grown and treated with CIP3-TAT peptide, as shown in A. Cells were processed for ChIP with antibodies against V5.
The potential of CIP3-TAT to inhibit cohesion activity was explored by analyzing sister chromatid cohesion in cells arrested at the G2/M. Inserted in the LYS4 locus were LacO arrays, which bind LacI-GFP. In unperturbed cells arrested at the G2/M phase of the cell cycle, cohesin tethers the sister chromatids visualized under the microscope as a single GFP dot. When cohesin is inactivated, the sister chromatids fall apart and are seen as two distinctive GFP dots. yME-961 strain cells were grown to mid-log phase and arrested at the G1 phase of the cell cycle. […]

For KRFKDMEYLSGGEKTGGYGRKKRRQRRR [CIP3-TAT], the “complex formation with Smc3-GFP/cohesin” value [1] was “supported the formation of the Smc3/CIP3 complex”, the “chromatin condensation” value (yeast cells, G2/M) was “chromatin was decondensed in comparison with the untreated cells” and the “sister chromatid cohesion level” value [2] was “precocious separation of the sister chromatids”. For the same sequence, the “cells with precocious separation of sister chromatids (two GFP dots)” value ([2]; LacO at LYS4, at least 300 cells in 3 independent experiments) was “approximately 80%”.
